Data published in patent US12577257B2, “Heterocyclic compounds” (Hoffmann-La Roche Inc., priority 2018, dated 2026).
pIC50: −log10 of the molar value.

The compounds below were run against T1, MAGL (Homo sapiens, UniProt Q99685) (assay: MAGL inhibition, Table 1 values with no assay marker (2-AG or 4-NPA assay not stated)).
T1 sequence (Q99685 1-303): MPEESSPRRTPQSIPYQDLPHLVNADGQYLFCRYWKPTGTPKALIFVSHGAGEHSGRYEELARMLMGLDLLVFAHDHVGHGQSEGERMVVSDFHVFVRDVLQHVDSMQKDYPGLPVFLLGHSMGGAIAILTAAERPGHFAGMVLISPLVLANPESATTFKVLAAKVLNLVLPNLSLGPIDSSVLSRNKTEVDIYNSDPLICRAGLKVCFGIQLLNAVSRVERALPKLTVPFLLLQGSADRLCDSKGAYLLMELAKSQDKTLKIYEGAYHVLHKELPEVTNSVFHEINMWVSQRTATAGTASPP
Type: biochemical
Experimental: Compounds were profiled for MAGL inhibitory activity by measuring the enzymatic activity of MAGL by following the hydrolysis of 4-nitrophenylacetate resulting in 4-nitrophenol, which absorbs at 405-412 nm (G. G. Muccioli, G. Labar, D. M. Lambert, Chem. Bio. Chem. 2008, 9, 2704-2710). This assay is hereinafter abbreviated “4-NPA assay”.
The 4-NPA assay was carried out in 384 well assay plates (black with clear bottom, non-binding surface treated, Corning Ref. 3655) in a total volume of 40 μL. Compound dilutions were made in 100% DMSO (VWR Chemicals 23500.297) in a polypropylene plate in 3-fold dilution steps to give a final concentration range in the assay from 25 μM to 1.7 nM. 1 μL compound dilutions (100% DMSO) were added to 19 μL MAGL (recombinant wild-type) in assay buffer (50 mM TRIS (GIBCO, 15567-027), 1 mM EDTA (Fluka, 03690-100 ml)). The plate was shaked for 1 min at 2000 rpm (Variomag Teleshake) and then incubated for 15 min at RT. To start the reaction, 20 μL 4-Nitrophenylacetate (Sigma N-8130) in assay buffer with 6% EtOH was added. The final concentrations in the assay were 1 nM MAGL and 300 μM 4-Nitrophenylacetate. After shaking (1 min, 2000 rpm) and 5 min incubation at RT, the absorbance at 405 nm was measured for a first time (Molecular Devices, SpectraMax Paradigm). A second measurement was then done after incubation for 80 min at RT. From the two measurements, the slope was calculated by subtracting the first from the second measurement.
Alternatively, compounds were profiled for MAGL inhibitory activity by determining the enzymatic activity by following the hydrolysis of the natural substrate 2-arachidonoylglycerol resulting in arachidonic acid, which can be followed by mass spectrometry. This assay is hereinafter abbreviated “2-AG assay”.
The 2-AG assay was carried out in 384 well assay plates (PP, Greiner Cat #784201) in a total volume of 20 μL. Compound dilutions were made in 100% DMSO (VWR Chemicals 23500.297) in a polypropylene plate in 3-fold dilution steps to give a final concentration range in the assay from 12.5 μM to […]. 0.25 μL compound dilutions (100% DMSO) were added to 9 μL MAGL in assay buffer (50 mM TRIS (GIBCO, 15567-027), 1 mM EDTA (Fluka, 03690-100 ml), 0.01% (v/v) Tween. After shaking, the plate was incubated for 15 min at RT. To start the reaction, 10 μL 2-arachidonoylglycerol in assay buffer was added. The final concentrations in the assay was […] and 8 μM 2-arachidonoylglycerol. After shaking and 30 min incubation at RT, the reaction was quenched by the addition of 40 μL of acetonitrile containing 4 μM of d8-arachidonic acid. The amount of arachidonic acid was traced by an online SPE system (Agilent Rapidfire) coupled to a triple quadrupole mass spectrometer (Agilent 6460). A C18 SPE cartridge (G9205A) was used in an acetonitrile/water liquid setup. The mass spectrometer was operated in negative electrospray mode following the mass transitions 303.1→259.1 for arachidonic acid and 311.1→267.0 for d8-arachidonic acid. The activity of the compounds was calculated based on the ratio of intensities [arachidonic acid/d8-arachidonic acid].
Compound `O=C1CO[C@H]2CCN(C(=O)N3CC4(CC(c5ccc(S(F)(F)(F)(F)F)cc5)C4)C3)C[C@H]2N1` [Example 46, (4aR,8aS)-6-(6-(4-(pentafluoro-l6-sulfaneyl)phenyl)-2-azaspiro[3.3]heptane-2-carbonyl)hexahydro-2H-pyrido[4,3-b][1,4]oxazin-3(4H)-one] has a pIC50 of 7.84.
Work on `O=C1CO[C@H]2CCN(C(=O)N3CC4(CC(c5ccc(N6CCCC6C(F)(F)F)cc5)C4)C3)C[C@H]2N1` (stereo partly drawn) [Example 47, (4aR,8aS)-6-(6-(4-(2-(trifluoromethyl)pyrrolidin-1-yl)phenyl)-2-azaspiro[3.3]heptane-2-carbonyl)hexahydro-2H-pyrido[4,3-b][1,4]oxazin-3(4H)-one] yielded a pIC50 of 7.40.
In the case of `Cn1nccc1-c1ccc(C2CC3(C2)CN(C(=O)N2CC[C@@H]4OCC(=O)N[C@@H]4C2)C3)cc1` [Example 48, (4aR,8aS)-6-(6-(4-(1-methyl-1H-pyrazol-5-yl)phenyl)-2-azaspiro[3.3]heptane-2-carbonyl)hexahydro-2H-pyrido[4,3-b][1,4]oxazin-3(4H)-one], the pIC50 was 6.65.
In the case of `O=C1CO[C@H]2CCN(C(=O)N3CC4(CC(Cc5ccc(C(F)(F)F)cc5F)C4)C3)C[C@H]2N1` [Example 49, (4aR,8aS)-6-(6-(2-fluoro-4-(trifluoromethyl)benzyl)-2-azaspiro[3.3]heptane-2-carbonyl)hexahydro-2H-pyrido[4,3-b][1,4]oxazin-3(4H)-one], the pIC50 was 10.52.
In the case of `O=C1CO[C@H]2CCN(C(=O)N3CC4(CC(Cc5ccc(F)cc5Cl)C4)C3)C[C@H]2N1` [Example 50, (4aR,8aS)-6-(6-(2-chloro-4-fluorobenzyl)-2-azaspiro[3.3]heptane-2-carbonyl)hexahydro-2H-pyrido[4,3-b][1,4]oxazin-3(4H)-one], the pIC50 was 10.40.
In the case of `O=C1CO[C@H]2CCN(C(=O)N3CC4(CC(Cc5ccc(F)cc5F)C4)C3)C[C@H]2N1` [Example 51, (4aR,8aS)-6-(6-(2,4-difluorobenzyl)-2-azaspiro[3.3]heptane-2-carbonyl)hexahdyro-2H-pyrido[4,3-b][1,4]oxazin-3(4H)-one], the pIC50 was 9.77.
`COc1cc(C(F)(F)F)ccc1CC1CC2(C1)CN(C(=O)N1CC[C@@H]3OCC(=O)N[C@@H]3C1)C2` [Example 52, (4aR,8aS)-6-(6-(2-methoxy-4-(trifluoromethyl)benzyl)-2-azaspiro[3.3]heptane-2-carbonyl)hexahydro-2H-pyrido[4,3-b][1,4]oxazin-3(4H)-one] was tested, and the pIC50 was 10.52.
`O=C1CO[C@H]2CCN(C(=O)N3CC4(CC(Cc5c(F)cccc5C(F)(F)F)C4)C3)C[C@H]2N1` [Example 53, (4aR,8aS)-6-(6-(2-fluoro-6-(trifluoromethyl)benzyl)-2-azaspiro[3.3]heptane-2-carbonyl)hexahydro-2H-pyrido[4,3-b][1,4]oxazin-3(4H)-one] showed a pIC50 of 10.30.
For `O=C1CO[C@H]2CCN(C(=O)N3CC4(CC(COc5ccc(F)cc5Cl)C4)C3)C[C@H]2N1` [Example 54, (4aR,8aS)-6-(6-((2-chloro-4-fluorophenoxy)methyl)-2-azaspiro[3.3]heptane-2-carbonyl)hexahydro-2H-pyrido[4,3-b][1,4]oxazin-3(4H)-one], the pIC50 was 8.84.
`O=C1CO[C@H]2CCN(C(=O)N3CC4(C3)CN(c3ccc(C(F)(F)F)cc3)C4)C[C@H]2N1` [Example 55, (4aR,8aS)-6-(6-(4-(trifluoromethyl)phenyl)-2,6-diazaspiro[3.3]heptane-2-carbonyl)hexahydro-2H-pyrido[4,3-b][1,4]oxazin-3(4H)-one] showed a pIC50 of 5.98.
`O=C1CO[C@H]2CCN(C(=O)N3CC4(C3)CN(c3cccc(C(F)(F)F)c3)C4)C[C@H]2N1` [Example 56, (4aR,8aS)-6-(6-(3-(trifluoromethyl)phenyl)-2,6-diazaspiro[3.3]heptane-2-carbonyl)hexahydro-2H-pyrido[4,3-b][1,4]oxazin-3(4H)-one] gave a pIC50 of 6.44.
Work on `O=C1CO[C@H]2CCN(C(=O)N3CCC4(C3)CN(c3ccc(C(F)(F)F)cc3)C4)C[C@H]2N1` [Example 57, (4aR,8aS)-6-(2-(4-(trifluoromethyl)phenyl)-2,6-diazaspiro[3.4]octane-6-carbonyl)hexahydro-2H-pyrido[4,3-b][1,4]oxazin-3(4H)-one] yielded a pIC50 of 6.76.
`O=C1CO[C@H]2CCN(C(=O)N3CCC4(C3)CN(c3cccc(C(F)(F)F)c3)C4)C[C@H]2N1` [Example 58, (4aR,8aS)-6-(2-(3-(trifluoromethyl)phenyl)-2,6-diazaspiro[3.4]octane-6-carbonyl)hexahydro-2H-pyrido[4,3-b][1,4]oxazin-3(4H)-one] gave a pIC50 of 7.15.
Compound `CC(C)Oc1ccc(N2CC3(CCN(C(=O)N4CC[C@@H]5OCC(=O)N[C@@H]5C4)C3)C2)cc1` [Example 59, (4aR,8aS)-6-(2-(4-isopropoxyphenyl)-2,6-diazaspiro[3.4]octane-6-carbonyl)hexahydro-2H-pyrido[4,3-b][1,4]oxazin-3(4H)-one] has a pIC50 of 6.53.
With `CC(C)Oc1ccc(N2CC3(CN(C(=O)N4CC[C@@H]5OCC(=O)N[C@@H]5C4)C3)C2)cc1` [Example 60, (4aR,8aS)-6-(6-(4-isopropoxyphenyl)-2,6-diazaspiro[3.3]heptane-2-carbonyl)hexahydro-2H-pyrido[4,3-b][1,4]oxazin-3(4H)-one] the pIC50 was 5.80.
Work on `O=C1CO[C@H]2CCN(C(=O)N3CCC4(C3)CN(c3ccc(N5CCCC5=O)cc3)C4)C[C@H]2N1` [Example 61, (4aR,8aS)-6-(2-(4-(2-oxopyrrolidin-1-yl)phenyl)-2,6-diazaspiro[3.4]octane-6-carbonyl)hexahydro-2H-pyrido[4,3-b][1,4]oxazin-3(4H)-one] yielded a pIC50 of 5.64.
With `COc1ccc(N2CC3(CCN(C(=O)N4CC[C@@H]5OCC(=O)N[C@@H]5C4)C3)C2)cc1C` [Example 62, (4aR,8aS)-6-(2-(4-methoxy-3-methylphenyl)-2,6-diazaspiro[3.4]octane-6-carbonyl)hexahydro-2H-pyrido[4,3-b][1,4]oxazin-3(4H)-one] the pIC50 was 7.23.
`O=C1CO[C@H]2CCN(C(=O)N3CCC4(C3)CN(c3ccc(Cl)c(C(F)(F)F)c3)C4)C[C@H]2N1` [Example 63, (4aR,8aS)-6-(2-(4-chloro-3-(trifluoromethyl)phenyl)-2,6-diazaspiro[3.4]octane-6-carbonyl)hexahydro-2H-pyrido[4,3-b][1,4]oxazin-3(4H)-one] was tested, and the pIC50 was 7.80.
`O=C1CO[C@H]2CCN(C(=O)N3CCC4(C3)CN(c3ccnc(F)c3)C4)C[C@H]2N1` [Example 64, (4aR,8aS)-6-(2-(2-fluoropyridin-4-yl)-2,6-diazaspiro[3.4]octane-6-carbonyl)hexahydro-2H-pyrido[4,3-b][1,4]oxazin-3(4H)-one] showed a pIC50 of 5.30.
With `O=C1CO[C@H]2CCN(C(=O)N3CC4(C3)CN(c3cc(C(F)(F)F)ccc3C(F)(F)F)C4)C[C@H]2N1` [Example 65, (4aR,8aS)-6-(6-(2,5-bis(trifluoromethyl)phenyl)-2,6-diazaspiro[3.3]heptane-2-carbonyl)hexahydro-2H-pyrido[4,3-b][1,4]oxazin-3(4H)-one] the pIC50 was 5.96.
Work on `O=C1CO[C@H]2CCN(C(=O)N3CC4(C3)CN(S(=O)(=O)c3ccc(F)cc3C(F)(F)F)C4)C[C@H]2N1` [Example 66, (4aR,8aS)-6-(6-((4-fluoro-2-(trifluoromethyl)phenyl)sulfonyl)-2,6-diazaspiro[3.3]heptane-2-carbonyl)hexahydro-2H-pyrido[4,3-b][1,4]oxazin-3(4H)-one] yielded a pIC50 of 6.71.
